# In article PMC8657723, “Novel Pituitary Actions of TAC4 Gene Products in Teleost” (International Journal of Molecular Sciences, 2021):
# Entries after “also recorded” stand apart in the source; their conditions may differ.
# Key:
# Type in all cases: cell-based, grass carp (Ctenopharyngodon idellus)
# [1] = tested on: grass carp pituitary cells; experiment: Antagonist effect of HK1 on HK2-induced mRNA expression in grass carp pituitary cells; settings: HK2 0.1 µM + HK1 1 µM and 10 µM, 24 h
# Description: (§1) Figure 9 Phe to Val mutation in FXGLM motif in PRL, SLα, and UTS1 regulation by HK2 in grass carp pituitary cells. (A) Effects of HK1-V7F on PRL, SLα, and UTS1 mRNA expression in grass carp pituitary cells. In this experiment, grass carp pituitary cells were incubated for 24 h with increasing levels of HK1-V7F (0.1–1000 nM). (B) Suppressed effects of HK1 on HK2-induced PRL, SLα, and UTS1 mRNA expression in grass carp pituitary cells. Pituitary cells were challenged for 24 h with grass carp HK2 (0.1 µM) in the presence or absence of HK1 (1 µM) and HK1 (10 µM). In these experiment, Trizol method was used to extract total cell RNA, and RT-PCR was used to detect PRL, SLα, and UTS1 mRNA expression. Data presented are expressed as mean ± SEM, and the differences between groups were significant at p-value < 0.05 by labeling diverse letters.
# Furthermore, to verify whether HK1 could function as an endogenous antagonist of NKRs, we examined the antagonist effect of HK1 on HK2-induced pituitary hormone genes expression.
# [2] = tested on: grass carp pituitary cells; experiment: RT-qPCR of pituitary gene mRNA expression after peptide treatment of grass carp pituitary cells
# Text: To further confirm the pituitary actions of HKs in grass carp, trypsin digestion method was used to prepare for grass carp primary cultured pituitary cells. […] After drug treatment, total RNA was extracted from adherent cells by Trizol, and then subjected to reverse transcription using HifairTM III 1st Strand cDNA Synthesis Kit (Yeasen, Shanghai, China). In the present study, β-actin was used as the internal reference gene, and then, the transcript levels of PRL, SLα, CART2, UTS1, and NMB1 were detected by using a ABI 7500 real-time PCR system (see Supplementary Table S2 for primer sequences and PCR condition). In addition, the plasmid DNA containing the gene coding sequence was serially diluted as a standard for data calibration.
# In this study, RT-qPCR was used to detect mRNA expression for TAC4, NKRs, PRL, SLα, CART2, UTS1, SN2, and NMB1. In the ABI7500 software, the dynamic mRNA concentration detection range of the double standard curve is 10^5, and the correlation coefficient is >0.95. […] In the transfection experiment, the detected firefly luciferase activity was routinely normalized with the GFP activity expressed in the same well, expressed as the luciferin activity ratio Luc ratio. The data from four parallel experiments was presented as mean ± SEM in the figure. All the data were analyzed by ANOVA, and then subjected to Dunnett’s test in GraphPad Prism 7.0. The significant differences between groups were indicated by p < 0.05.
# Figure 5 TAC4 gene products (HK1 and HK2) induced PRL (A) and SLα (B) mRNA expression in grass carp pituitary cells. Time course of grass carp HK1 (1 μM) and HK2 (1 μM) on PRL (A) and SLα (B) mRNA expression in grass carp pituitary cells. Dose-dependence of 24-h treatment with increasing levels of HK1 and HK2 (0.1–1000 nM) on PRL (A) and SLα (B) mRNA expression in grass carp pituitary cells. After drug treatment, the total RNA of the cells was extracted by the Trizol method, and the expression of various genes was detected by RT-PCR. Data presented were expressed as mean ± SEM, and the differences between groups were significant at p-value < 0.05 by labeling diverse letters.
# Figure 6 TAC4 gene products (HK1 and HK2) induced CART2, NMB1, and UTS1 mRNA expression in grass carp pituitary cells. Time course of grass carp HK1 (1 μM) and HK2 (1 μM) on CART2 (A), NMB1 (B), and UTS1 (C) mRNA expression in grass carp pituitary cells. Dose-dependence of 24-h treatment with increasing levels of HK1 or HK2 (0.1–1000 nM) on CART2 (A), NMB1 (B), and UTS1 (C) mRNA expression in grass carp pituitary cells. After drug treatment, the total RNA of the cells was extracted by the Trizol method, and the expression of various genes were detected by RT-PCR. Data presented were expressed as mean ± SEM, and the differences between groups were significant at p-value < 0.05 by labeling diverse letters.
# as §1
# [3] = tested on: NK2R; experiment: Functional activation of grass carp NK2R, NFAT-Luc reporter in HEK293T cells; settings: among the six NKR isoforms
# Description: To clarify the receptor selectivity of TAC4 gene products, a transfection experiment was conducted in HEK293T cells, and the fluorescent signal was detected by the firefly luciferase reporter gene detection kit. Firstly, the cDNA sequences of neurokinin receptor 1 isoforms a (NK1Ra), neurokinin receptor 1 isoforms b (NK1Rb), NK2R, neurokinin receptor 3 isoforms a1 (NK3Ra1), neurokinin receptor 3 isoforms a2 (NK3Ra2), and neurokinin receptor 3 isoforms b (NK3Rb) were isolated from grass carp pituitary, and the coding region of the six receptors were then subcloned into the eukaryotic expression vector pcDNA3.1. Secondly, the HEK293T cells were co-transfected with the plasmids of NFAT-Luc (Nuclear factor of activated T cells-luciferase), green fluorescent protein (GFP), and each pcDNA3.1-NKRs by using Lipofectamine 3000 (Thermo Fisher). The transfected HEK293T cells were incubated with various concentration HK-1 (1–10,000 nM), HK-2 (1–10,000 nM), or HK1-V7F (1–10,000 nM) for 24 h, respectively. Finally, the transfected cells were collected to detect the luciferase value according to the instructions of the firefly luciferase reporter gene detection kit. […]
# Figure 2 Receptor selectivity of HK1, HK2, and HK1-V7F. […] Each point is determined quadruplicate and is given as a mean ± SEM. […]
# [4] = tested on: six NKR isoforms; experiment: Functional activation of the six grass carp NKR isoforms, NFAT-Luc reporter in HEK293T cells; settings: 24 h
# Description: To clarify the receptor selectivity of TAC4 gene products, a transfection experiment was conducted in HEK293T cells, and the fluorescent signal was detected by the firefly luciferase reporter gene detection kit. Firstly, the cDNA sequences of neurokinin receptor 1 isoforms a (NK1Ra), neurokinin receptor 1 isoforms b (NK1Rb), NK2R, neurokinin receptor 3 isoforms a1 (NK3Ra1), neurokinin receptor 3 isoforms a2 (NK3Ra2), and neurokinin receptor 3 isoforms b (NK3Rb) were isolated from grass carp pituitary, and the coding region of the six receptors were then subcloned into the eukaryotic expression vector pcDNA3.1. Secondly, the HEK293T cells were co-transfected with the plasmids of NFAT-Luc (Nuclear factor of activated T cells-luciferase), green fluorescent protein (GFP), and each pcDNA3.1-NKRs by using Lipofectamine 3000 (Thermo Fisher). The transfected HEK293T cells were incubated with various concentration HK-1 (1–10,000 nM), HK-2 (1–10,000 nM), or HK1-V7F (1–10,000 nM) for 24 h, respectively. Finally, the transfected cells were collected to detect the luciferase value according to the instructions of the firefly luciferase reporter gene detection kit.
# To clarify the receptor selectivity of HK1 and HK2 for the six NKRs, HEK-293T cell lines were established to stably express NK1Ra, NK1Rb, NK2R, NK3Rb, NK3Ra1, or NK3Ra2 were established, respectively. The cells were then used for transfection study with NFAT-Luc vectors, which was allowed for functional evaluation of the activation status of Ca^2+-dependent pathway.
# Figure 2 Receptor selectivity of HK1, HK2, and HK1-V7F. The nuclear factor of activated T-cells (NFAT)-Luc reporter together with NK1Ra, NK1Rb, NK2R, NK3Rb, NK3Ra1, or NK3Ra2, were transiently transfected into HEK-293 cells, respectively. The cells were incubated with increasing levels of grass carp HK1, HK2, or HK1-V7F (0.1–1000 nM), respectively. The luciferase activities were normalized against renilla expression in the same sample to adjust for potential variations in transfection efficiency. Each point is determined quadruplicate and is given as a mean ± SEM. The groups denoted by different letters represent significant differences at p-value < 0.05 (ANOVA followed Dunnett’s test).
# [5] = 1 µM, 3 h, 6 h, 24 h, 48 h, RT-qPCR, β-actin
# [6] = 0.1–1000 nM, 24 h, RT-qPCR, β-actin
# [7] = Figure 9B, 24 h static incubation, HK2 0.1 µM
substance,measurement,setting,value
"TPGLQQVFGLM-NH2 [HK1, grass carp TAC4 mature peptide, …-NH2]",suppression of HK2-induced PRL mRNA expression,[1],could not suppress; also recorded: could not block
same,suppression of HK2-induced SLα mRNA expression,[1],could not suppress; also recorded: could not block
same,suppression of HK2-induced UTS1 mRNA expression,[1],could not suppress; also recorded: could not block
same,"CART2 mRNA expression, time course",[2]; [5],no effect
same,"NMB1 mRNA expression, time course",[2]; [5],no effect
same,"PRL mRNA expression, time course",[2]; [5],no effect
same,"SLα mRNA expression, time course",[2]; [5],no effect
same,"UTS1 mRNA expression, time course",[2]; [5],no effect
same,"CART2 mRNA expression, dose-dependence",[2]; [6],ineffective
same,"NMB1 mRNA expression, dose-dependence",[2]; [6],ineffective
same,"PRL mRNA expression, dose-dependence",[2]; [6],ineffective
same,"SLα mRNA expression, dose-dependence",[2]; [6],ineffective
same,"UTS1 mRNA expression, dose-dependence",[2]; [6],ineffective
same,PRL mRNA stimulation compared to HK2,[2]; [7],much weaker
same,SLα mRNA stimulation compared to HK2,[2]; [7],much weaker
same,UTS1 mRNA stimulation compared to HK2,[2]; [7],much weaker
same,pituitary genes' expression (summary),"[2]; grass carp pituitary cells, PRL, SLα, UTS1, NMB1, CART2",notably weaker; also recorded: ineffective for the six pituitary genes’ expression
same,NK2R activation (in words),[3],very weak activation
same,"ED50, NFAT-Luc luciferase activity, NKR isoforms",[4]; HEK-293T expressing each NKR,> 10 µM
same,activation of the six NKR isoforms (in words),"[4]; NFAT-Luc luciferase, HEK293T, NK1Ra, NK1Rb, NK2R, NK3Ra1, NK3Ra2, NK3Rb",very weak activation; also recorded: relatively low efficient stimulant; also recorded: could barely activate any NKR isoforms
